Data taken from the NIST ThermoML archive (doi:10.1021/je060271a).
“And” between values parts separate entries of the source, which are not always exact repeats. Equal entries are not always repeated.

Settings: Liquid, Vibrating tube method

CCCCCCCC(=O)OCC(COC(=O)CCCCCCC)(COC(=O)CCCCCCC)COC(=O)CCCCCCC [pentaerythritol tetraoctanoate]
Settings | mass density
303.14 K, 4098.2 kPa | 957.9 kg/m3
303.14 K, 4118.3 kPa | 957.9 kg/m3
303.14 K, 4135.4 kPa | 957.9 kg/m3
303.14 K, 4156 kPa | 957.9 kg/m3
303.14 K, 4172.8 kPa | 957.9 kg/m3
303.14 K, 4194.3 kPa | 958 kg/m3
303.14 K, 4211.9 kPa | 958 kg/m3
303.14 K, 4232.9 kPa | 958.1 kg/m3
303.14 K, 4250 kPa | 958 kg/m3
303.14 K, 4271.5 kPa | 958.1 kg/m3
303.14 K, 4289.7 kPa | 958 kg/m3
303.14 K, 4414.6 kPa | 958.1 kg/m3
303.14 K, 4495.8 kPa | 958.1 kg/m3
303.14 K, 4506.9 kPa | 958.2 kg/m3
303.14 K, 4516.1 kPa | 958.2 kg/m3
303.14 K, 4528.5 kPa | 958.3 kg/m3
303.14 K, 4565.1 kPa | 958.2 kg/m3
303.14 K, 4883.3 kPa | 958.4 kg/m3
303.14 K, 4909.3 kPa | 958.4 kg/m3
303.14 K, 4931.2 kPa | 958.5 kg/m3
303.14 K, 4958.7 kPa | 958.5 kg/m3
303.14 K, 5309.4 kPa | 958.7 kg/m3
303.14 K, 5618.4 kPa | 958.8 kg/m3
303.14 K, 5650.1 kPa | 958.8 kg/m3
303.14 K, 5689.5 kPa | 958.9 kg/m3
303.14 K, 5713.9 kPa | 959 kg/m3
303.14 K, 5742.8 kPa | 959 kg/m3
303.14 K, 6420.5 kPa | 959.2 kg/m3
303.14 K, 6514.5 kPa | 959.4 kg/m3
303.14 K, 6535.9 kPa | 959.5 kg/m3
303.14 K, 6561.5 kPa | 959.4 kg/m3
303.14 K, 6885.2 kPa | 959.7 kg/m3
303.14 K, 6937.5 kPa | 959.7 kg/m3
303.14 K, 6965.9 kPa | 959.7 kg/m3
303.14 K, 6989.7 kPa | 959.7 kg/m3
303.14 K, 7018.5 kPa | 959.7 kg/m3
303.14 K, 7042.7 kPa | 959.8 kg/m3
303.14 K, 7072.4 kPa | 959.8 kg/m3
303.14 K, 7331.7 kPa | 960 kg/m3
303.14 K, 7358.2 kPa | 959.8 kg/m3
303.14 K, 7974.8 kPa | 960.4 kg/m3
303.14 K, 8046.4 kPa | 960.3 kg/m3
303.14 K, 8085.7 kPa | 960.5 kg/m3
303.14 K, 8120 kPa | 960.5 kg/m3
303.14 K, 8830.9 kPa | 960.7 kg/m3
303.14 K, 9313 kPa | 961.2 kg/m3
303.14 K, 9339.7 kPa | 961.2 kg/m3
303.14 K, 11022 kPa | 962.1 kg/m3
303.14 K, 11048 kPa | 962.2 kg/m3
303.14 K, 13652 kPa | 963.7 kg/m3
303.14 K, 13735 kPa | 963.7 kg/m3
303.14 K, 13777 kPa | 963.7 kg/m3
303.14 K, 13855 kPa | 963.8 kg/m3
303.14 K, 13898 kPa | 963.8 kg/m3
303.14 K, 14022 kPa | 964 kg/m3
303.15 K, 104.6 kPa | 955.3 kg/m3 and 955.4 kg/m3
303.15 K, 104.7 kPa | 955.5 kg/m3 and 955.4 kg/m3
303.15 K, 104.9 kPa | 955.4 kg/m3
303.15 K, 105.1 kPa | 955.4 kg/m3
303.15 K, 106.7 kPa | 955.3 kg/m3
303.15 K, 113.4 kPa | 955.5 kg/m3
303.15 K, 119.7 kPa | 955.5 kg/m3
303.15 K, 123.3 kPa | 955.5 kg/m3
303.15 K, 127.9 kPa | 955.5 kg/m3
303.15 K, 133.8 kPa | 955.5 kg/m3
303.15 K, 141.4 kPa | 955.5 kg/m3
303.15 K, 151 kPa | 955.4 kg/m3
303.15 K, 163.8 kPa | 955.4 kg/m3
303.15 K, 180.7 kPa | 955.5 kg/m3
303.15 K, 203.5 kPa | 955.6 kg/m3
303.15 K, 234.4 kPa | 955.6 kg/m3
303.15 K, 272.8 kPa | 955.5 kg/m3
303.15 K, 306.2 kPa | 955.6 kg/m3
